According to patent US8048924B2, “Methods and compositions employing 4-aminophenylacetic acid compounds” (Biocon Limited, priority 2001, dated 2011):
“And” between values parts separate entries of the source, which are not always exact repeats. Identical values can stand only once.

Tests used:
[1] = tested on: DNBS colitis; assay: DNBS colitis in the rat, equimolar rectal doses of 5-ASA, 4-APAA and mixture; format: in vivo, male Lewis rats; conditions: for average severity score for necrosis, Adventitia / average severity score for necrosis, Mucosa / average severity score for necrosis, Muscularis / average severity score for necrosis, Submucosa: colon histology, scale 1-5, intrarectal twice daily for four days; for reduction in colon:body weight [% BW] / reduction of adhesion scores: rectal b.i.d. 4 days; for reduction in colon:body weight [% BW]: 5-ASA 50 mg/kg, 4-APAA 49.5 mg/kg, mixture 50+49.5 mg/kg; for reduction of adhesion scores: vs vehicle/DNBS
Excerpt: The purpose of this study was to histologically evaluate and compare the effects of three different therapeutic agents administered intrarectally (twice daily for four days) to male Lewis rats following intrarectal administration of dinitrobenzene sulfonic acid (DNBS). DNBS induced colitis in rats according to an established experimental model (see, for example, Bertran et al., “Intracolonic administration of zileuton, a selective 5-lipoxygenase inhibitor, accelerates healing in a rat model of chronic colitis,” Gut. 38(6):899-904 (1996), and Blau et al., “Relation between colonic inflammation severity and total low-molecular-weight antioxidant profiles in experimental colitis,” Dig Dis Sci. 45(6):1180-1187 (2000), the entire disclosures of which are incorporated herein by reference). SHAM and DNBS groups served as negative and positive controls, respectively.
Trimmed specimens of colon from 27 male rats were tested, including microtoming, and hematoxylin and eosin staining. The resulting 27 slides (1 transverse section per slide) were examined microscopically. Except for one rat from the SHAM group and one rat from the DNBS group, all slides had their labels taped over to facilitate blind reading. Lesions were graded on a scale of 1-5 (1=minimal; 2=mild; 3=moderate; 4=moderately-severe; 5=severe).
Because the pattern of necrosis often varied from section to section, the individual intestinal layers were scored separately.
Dinitrobenzene sulfonic acid (DNBS) colitis was induced (no ether anesthesia) in 4 groups 4 of 6 Lewis rats each. One DNBS group was dosed with vehicle (0.7% methyl cellulose) as well as an additional sham group of 6 animals that received a saline enema instead of DNBS. Intrarectal (ir) dosing was performed in conscious animals b.i.d. for 4 days. Drug treatments were as follows: • 5-aminosalicylic acid (5-ASA): 50 mg/kg • 4-aminophenylacetic acid (4-APAA): 49.5 mg/kg (equimolar to 5-ASA) • Mixture: 5-ASA+4-APAA: 50 mg/kg+49.5 mg/kg
Drugs were suspended in the above mentioned vehicle and staff blinded to drug groups. Daily weights and diarrhea scores were recorded. On the 5th day post-irritant rats were sacrificed, laparotomies performed and scored for intestinal adhesions and strictures; colectomized and colon weights recorded, colons opened longitudinally and inflammation/ulcerations scored.
The anti-inflammatory effects of 3 different treatments were compared in a DNBS model of colitis in 30 male Lewis rats weighing between 218 and 260 grams.
Animals were divided into 5 groups of 6 animals in each group: • 0.7% methylcellulose (vehicle)+normal saline • 0.7% methylcellulose (vehicle)+ethanolic solution of 2,4-dinitrobenzenesulfonic acid (DNBS) 30 mg • 5-ASA at 100 mg/kg·day+DNBS 30 mg/rectally • 4-APAA at 99 mg/kg·day+DNBS 30 mg/rectally • 5-ASA+4-APAA mixture (APAZA™) at 199 mg/kg·day+DNBS 30 mg/rectally
Experimental colitis was induced under light anesthesia (ketamine/xylazine) in 4 of 5 groups by instilling DNBS (30 mg) rectally at a volume of 0.5 mL to fasted rats. Each group of animals received rectal twice daily (bid) doses of either vehicle (0.7% methylcellulose) or test compounds (5-ASA, 4-APAA or APAZA™) for 4 days beginning 24 hours after either the normal saline or DNBS irritant was instilled. Body weight and incidence of diarrhea were recorded daily. Each animal in the 4 DNBS groups and in the single parallel saline group was sacrificed 5 days post irritant. Laparotomies and colectomies were performed and animals were scored for the presence and severity of intestinal adhesions, strictures, inflammation, and ulceration. Colon: body weight ratios were determined and tissue was examined histologically.

[2] = Single oral dose plasma pharmacokinetics and elimination of APAZA and metabolites in mice; format: in vivo, male CD-1 mice
Experimental: Initial single dose pharmacokinetic studies with the APAZA™ compound have been conducted in dogs and mice. A study was completed in order to determine the plasma pharmacokinetics and elimination of the APAZA™ compound and its metabolites (5-ASA, 4-APAA, 5-aceASA and 4-aceAPAA) following single oral dose administration to male CD-1 mice. […] When normalized to molar values, the Cmax values for all the APAZA™ metabolites were less than APAZA™; the values ranged from 2.68 to 13.8 μM. However, the normalized APAZA™ AUC∞ value was not greater than all the other metabolites; these values ranged from […]. […] The Tmax values for APAZA™ and its metabolites were 1 hour and 4 hours, respectively.

In the case of `Nc1ccc(O)c(C(=O)O)c1` [5-ASA, 5-amino-2-hydroxy-benzoic acid, reference compound], the “average severity score for necrosis, Adventitia” value [1] is reported as 1.67, the “average severity score for necrosis, Mucosa” value [1] is reported as 4.50 and the “average severity score for necrosis, Muscularis” value [1] is reported as 3.5. For the same molecule, the “average severity score for necrosis, Submucosa” value [1] was 4.17, the “reduction in colon:body weight [% BW]” value [1] was ~31% and ~30% and the “reduction of adhesion scores” value [1] was about 17%.
Work on `O=C(O)Cc1ccc(/N=N/c2ccc(O)c(C(=O)O)c2)cc1` [APAZA™, 5-(4-carboxymethyl-phenylazo)-2-hydroxy-benzoic acid] yielded an AUC(0-inf) ([2]; male, CD-1, mouse, in vivo, po) of 7430 ng·h/mL, a Cmax ([2]; male, CD-1, mouse, in vivo, po) of 5930 ng/mL and a Tmax ([2]; male, CD-1, mouse, in vivo, po) of 1 h. For the same molecule, the half-life ([2]; male, CD-1, mouse, in vivo, po) was 3.34 h and the “plasma concentration at 24 hours” value ([2]; mouse, in vivo, po) was “below the limit of detection”.
In the case of `Nc1ccc(CC(=O)O)cc1` [4-APAA, (4-aminophenyl)-acetic acid], the “average severity score for necrosis, Adventitia” value [1] is reported as 1.67, the “average severity score for necrosis, Mucosa” value [1] is reported as 4.33 and the “average severity score for necrosis, Muscularis” value [1] is reported as 3.17. For the same molecule, the “average severity score for necrosis, Submucosa” value [1] was 4.00, the “reduction in colon:body weight [% BW]” value [1] was ~31% and ~30% and the “reduction of adhesion scores” value [1] was about 25%. For the same molecule, the “plasma concentration at 24 hours” value ([2]; single oral dose of APAZA, male CD-1 mice) was “below the limit of detection”.
